29 molecules from ChEMBL document CHEMBL2021840 (Eur J Med Chem, 2012) can be followed below.

SMILES strings stand for the structures.

The target of the first experiment is T1, Estrogen receptor beta (Homo sapiens, UniProt Q92731). In words: Relative binding affinity to human ERbeta.
T1 sequence (Q92731 whole entry): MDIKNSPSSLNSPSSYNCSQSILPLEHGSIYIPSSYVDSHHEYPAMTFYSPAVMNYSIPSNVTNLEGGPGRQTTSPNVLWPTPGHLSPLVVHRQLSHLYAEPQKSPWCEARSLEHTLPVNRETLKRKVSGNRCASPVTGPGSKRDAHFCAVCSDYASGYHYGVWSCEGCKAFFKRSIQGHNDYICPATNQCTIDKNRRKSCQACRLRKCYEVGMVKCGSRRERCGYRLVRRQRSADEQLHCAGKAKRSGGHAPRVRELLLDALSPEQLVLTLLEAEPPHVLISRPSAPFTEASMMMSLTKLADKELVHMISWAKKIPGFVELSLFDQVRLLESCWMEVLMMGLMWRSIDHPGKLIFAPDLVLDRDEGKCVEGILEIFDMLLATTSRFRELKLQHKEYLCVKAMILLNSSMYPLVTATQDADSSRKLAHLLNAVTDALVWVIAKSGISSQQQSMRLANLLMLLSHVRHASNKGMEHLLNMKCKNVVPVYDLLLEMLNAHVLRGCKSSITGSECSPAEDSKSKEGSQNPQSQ
Details: not given; call rule not given here
`C[C@]12CC[C@@H]3c4ccc(O)cc4CC[C@H]3[C@@H]1CC[C@@H]2O` [ESTRADIOL] registered a relative binding affinity (RBA) of 3.5.

The molecule `O=C(c1ccc(OCCN2CCCCC2)cc1)c1c(-c2ccc(O)cc2CCCF)sc2cc(O)ccc12` displayed a relative binding affinity (RBA) of 24.

Regarding `O=C(c1ccc(OCCN2CCCCC2)cc1)c1c(-c2ccccc2CCCF)sc2cc(O)ccc12`, the relative binding affinity (RBA) came to 30.

In turn, `O=C(c1ccc(OCCN2CCCCC2)cc1)c1c(-c2ccccc2CCF)sc2cc(O)ccc12` came in with a relative binding affinity (RBA) of 27.

Test system in a further experiment: not listed separately
In words: Selectivity ratio of IC50 for ERbeta to IC50 for ERalpha.
Details: not given
As for `Cc1cccc(C(=O)N2CCN(c3ccc(C(=O)c4c(-c5ccc(O)cc5)sc5cc(O)ccc45)cc3)CC2)c1`, the Ratio IC50 stood at 46.2.

Regarding `CC(C)N1CCN(c2ccc(C(=O)c3c(-c4ccc(O)cc4)sc4cc(O)ccc34)cc2)CC1`, the Ratio IC50 was found to be 121.

On to `O=C(c1ccc(N2CCN(C(=O)c3ccc(Cl)cc3)CC2)cc1)c1c(-c2ccc(O)cc2)sc2cc(O)ccc12`, for which the Ratio IC50 came to 41.

The next experiment has as its system MCF7. Nature of the experiment: Antiproliferative activity against human MCF7 cells. It is filed as functional, cell-based. The settings on record: Homo sapiens, MCF7; read-out: IC50.
For orientation: IC50 means the concentration that gives 50% inhibition. Take `COc1ccc(-c2sc3cc(O)ccc3c2C(=O)c2ccc(OCCN3CCCCC3)cc2)cc1`: the IC50 was 1000 nM.

For the molecule `Cc1sc2cc(O)ccc2c1Cc1ccc(OCCN2CCCCC2)cc1`, the IC50 is 600 nM.

In the case of `O=C(c1ccc(OCCN2CCCCC2)cc1)c1c(-c2ccccc2)sc2ccccc12`, the IC50 was determined as 300 nM.

On to `Oc1ccc2c(Cc3ccc(OCCN4CCCCC4)cc3)c(C3CCCC3)sc2c1`, for which the half-inhibitory concentration (IC50) is 10 nM.

As to `CC(C)c1sc2cc(O)ccc2c1Cc1ccc(OCCN2CCCCC2)cc1`, the IC50 came out at 100 nM.

For the molecule `Oc1ccc2c(Cc3ccc(OCCN4CCCCC4)cc3)c(C3CCCCC3)sc2c1`, the IC50 worked out at 10 nM.

Take `O=C(c1ccc(OCCN2CCCCC2)cc1)c1c2ccc(O)cc2sc1[C@H]1CC[C@H](O)CC1`: the IC50 turned out to be 0.5 nM.

`COc1ccc2c(C(=O)c3ccc(OCCN4CCCCC4)cc3)c([C@H]3CC[C@@H](O)CC3)sc2c1`: the IC50 turned out to be 100 nM.

In the case of `O=C(c1ccc(OCCN2CCCCC2)cc1)c1c(-c2ccc(O)cc2)sc2cc(O)c(O)cc12`, the IC50 amounted to 400 nM.

For `O=C(c1ccc(OCCN2CCCCC2)cc1)c1c(-c2ccc(O)c(F)c2)sc2cc(O)ccc12`, the IC50 was 0.3 nM.

Turning to `COc1ccc2c(C(=O)c3ccc(OCCN4CCCCC4)cc3)c(-c3ccc(O)cc3)sc2c1`, the IC50 was 250 nM.

Regarding `O=C(c1ccc(OCCN2CCCCC2)cc1)c1c(-c2ccc(O)cc2)sc2ccccc12`, the IC50 worked out at 35 nM.

On to `O=C(c1ccc(OCCN2CCCCC2)cc1)c1c(-c2ccc(O)cc2)sc2cc(O)c(F)cc12`, for which the IC50 worked out at 3 nM.

Take `Cc1cc(-c2sc3cc(O)ccc3c2C(=O)c2ccc(OCCN3CCCCC3)cc2)ccc1O`: the IC50 is 1 nM.

Consider `Oc1ccc2c(Cc3ccc(OCCN4CCCCC4)cc3)c([C@H]3CC[C@H](O)CC3)sc2c1`, for which the IC50 was 2 nM.

Regarding `O=C(c1ccc(OCCN2CCCCC2)cc1)c1c(-c2ccc(O)c(Cl)c2)sc2cc(O)ccc12`, the IC50 was 2.3 nM.

For `COc1ccc(-c2sc3cc(OC)ccc3c2C(=O)c2ccc(OCCN3CCCCC3)cc2)cc1`, the IC50 stood at 300 nM.

For `Cc1cc2c(C(=O)c3ccc(OCCN4CCCCC4)cc3)c(-c3ccc(O)cc3)sc2c(C)c1O`, the IC50 turned out to be 500 nM.

As to `CCc1sc2cc(O)ccc2c1Cc1ccc(OCCN2CCCCC2)cc1`, the IC50 amounted to 400 nM.

For the molecule `Cc1cc(-c2sc3cc(O)ccc3c2C(=O)c2ccc(OCCN3CCCCC3)cc2)cc(C)c1O`, the IC50 was determined as 100 nM.

The experiment is the same for the next values; noted with them: mcf7.
Turning to `C[C@]12CC[C@@H]3c4ccc(O)cc4CC[C@H]3[C@@H]1CC[C@@H]2O` [ESTRADIOL], the IC50 result is on record as “Not Active”.

A further experiment addresses T1, Estrogen receptor beta. Nature of the experiment: Displacement of [3H]-17beta-estradiol from ERbeta.
Details: not given
Molecule `O=C(c1ccc(N2CCN(C(=O)c3ccc(Cl)cc3)CC2)cc1)c1c(-c2ccc(O)cc2)sc2cc(O)ccc12` displayed an IC50 of 9.07 nM.

The target in a further experiment is T2, Estrogen receptor (Homo sapiens, UniProt P03372).
T2 sequence (P03372 whole entry): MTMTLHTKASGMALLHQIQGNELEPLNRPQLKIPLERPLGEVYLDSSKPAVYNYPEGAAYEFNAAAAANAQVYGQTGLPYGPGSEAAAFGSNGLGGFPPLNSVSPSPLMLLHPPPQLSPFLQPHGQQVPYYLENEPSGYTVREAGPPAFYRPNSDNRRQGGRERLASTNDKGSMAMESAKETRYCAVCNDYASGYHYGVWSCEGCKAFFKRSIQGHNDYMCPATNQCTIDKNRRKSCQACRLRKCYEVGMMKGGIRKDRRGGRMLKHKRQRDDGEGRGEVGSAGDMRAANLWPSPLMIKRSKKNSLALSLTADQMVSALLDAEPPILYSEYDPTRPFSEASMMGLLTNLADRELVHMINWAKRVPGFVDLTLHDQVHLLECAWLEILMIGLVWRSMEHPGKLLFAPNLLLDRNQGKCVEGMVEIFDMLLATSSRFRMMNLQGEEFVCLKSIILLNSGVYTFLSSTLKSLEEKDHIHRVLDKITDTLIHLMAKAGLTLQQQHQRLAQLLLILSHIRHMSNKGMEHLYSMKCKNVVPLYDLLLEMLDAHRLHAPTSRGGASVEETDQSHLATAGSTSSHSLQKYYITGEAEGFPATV
Nature of the experiment: Displacement of [3H]-17beta-estradiol from ERalpha.
Details: not given
In general terms: Displacement assays read how much labelled ligand stays bound in the presence of the test substance.
With `O=C(c1ccc(N2CCN(C(=O)c3ccc(Cl)cc3)CC2)cc1)c1c(-c2ccc(O)cc2)sc2cc(O)ccc12`, the IC50 is 0.22 nM.

The subject of a further experiment is MCF7. In words: Antiproliferative activity against human MCF7 cells after 7 days. It is filed as functional, cell-based. Conditions: MCF7, 168 h.
`C[C@H](COc1ccc(C(=O)c2c(-c3ccc(O)cc3)sc3cc(O)ccc23)cc1)N1CCCC1` displayed an IC50 of 0.2 nM.

On to `C[C@H]1CCN(CCOc2ccc(C(=O)c3c(-c4ccc(O)cc4)sc4cc(O)ccc34)cc2)C1`, for which the IC50 came to 1 nM.
